The compounds below were run against T1, ferroportin (Fpn) (Mus musculus, UniProt Q9JHI9) (assay: Hepcidin Internalization Assay (J774)). Conditions: average of multiple measurements; inhibition of TMR-hepcidin (25 nM) internalization into J774 cells; read-out: J774 IC50.
T1 construct: host or cells: J774 mouse macrophage cell line, Fe(III)-NTA induced
T1 sequence (Q9JHI9 1-570): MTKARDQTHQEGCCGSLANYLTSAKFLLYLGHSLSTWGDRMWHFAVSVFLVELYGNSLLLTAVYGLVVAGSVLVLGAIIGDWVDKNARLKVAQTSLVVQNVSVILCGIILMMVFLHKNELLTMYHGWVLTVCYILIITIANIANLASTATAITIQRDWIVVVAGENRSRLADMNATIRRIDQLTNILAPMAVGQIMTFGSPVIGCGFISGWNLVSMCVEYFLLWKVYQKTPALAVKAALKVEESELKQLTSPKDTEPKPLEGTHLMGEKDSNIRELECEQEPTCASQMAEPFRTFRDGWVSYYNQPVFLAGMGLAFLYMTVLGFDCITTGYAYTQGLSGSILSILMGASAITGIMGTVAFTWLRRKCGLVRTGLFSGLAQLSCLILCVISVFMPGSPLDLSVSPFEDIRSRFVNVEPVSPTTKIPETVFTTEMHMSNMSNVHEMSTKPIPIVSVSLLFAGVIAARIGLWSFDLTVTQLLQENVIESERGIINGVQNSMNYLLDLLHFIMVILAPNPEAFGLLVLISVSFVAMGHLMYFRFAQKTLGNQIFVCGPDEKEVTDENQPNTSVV
Format: cell-based
Excerpt: This cellular assay allows quantification of the binding of hepcidin to ferroportin (Fpn) through microscopic detection of internalization of a fluorescently labeled hepcidin into J774 cells. […] Binding of hepcidin to Fpn triggers internalization and degradation of both hepcidin and Fpn. However, the TMR (6-carboxytetramethylrhodamine) fluorophore attached to hepcidin remains associated with the cell after degradation of the hepcidin peptide backbone. Therefore, microscopic detection of ceH associated TMR fluorescence is a measure of hepcidin binding to Fpn and internalization of hepcidin and Fpn. If TMR-hepcidin is prevented from binding to Fpn, cellular TMR fluorescence remains low (Dürrenberger et al, 2013). The effect of small molecular weight Fpn inhibitor compounds in this assay was evaluated in vitro as described below.
J774 cells, harvested from ca. 80% confluent cultures, were plated at 8×10^5 cells/ml in complete medium (DMEM, 10% FBS, 1% Penicillin-Streptomycin) containing 200 μM Fe(III)NTA (nitrilotriacetic acid), 100 μl per well of 96 well MicroClear plates (Greiner; Cat. 655090) and grown at 37° C. with 5% CO2. After overnight incubation, cells were washed 3 times with pre-warmed DMEM w/o phenol red, 30 μl/well of DMEM w/o phenol red was added after the final wash and 10 μl/well of dilution series of test compounds were added in triplicates. […] Cells were incubated in a total volume of 50 μl at 37° C. with 5% CO2 for 2 hours, then Hoechst 33342 dye was added to a final concentration of 0.5 μg/ml to stain nuclei and further incubated for 10 min. at 37° C. with 5% CO2. Cells were washed 3 times with PBS and fixed in 100 μl of 4% paraformaldehyde in PBS for 15 min. at room temperature. After removal of the paraformaldehyde solution, cells were washed 3 times with PBS leaving 100 μl per well and the plates were sealed with foil plate seal. TMR (530-550 nm excitation/575-625 nm emission/400 ms exposure time) and Hoechst 33342 (360-370 nm excitation/420-460 nm emission/10 ms exposure time) fluorescence images were acquired using a ScanR plate imager (Olympus) with a 20× high NA objective. Four pictures were acquired per well and fluorescence channel covering ca. 1500 cells per well. The acquired image data was analysed with the ScanR image analysis software. Image analysis included detection of nuclei (Hoechst 33342 fluorescence), identification of cell-associated regions, application of a virtual channel and thresholding for rolling-ball-type background reduction, followed by application of the Sum(Mean) algorithm to measure the TMR fluorescence associated with cells as a quantitative measure for internalized TMR-hepcidin. IC50 values were calculated with the Sum(Mean) raw data using “log(inhibitor) vs. response” curve fitting of Prism 5 software (GraphPad Software Inc., version 5.02).

With `O=C(NCc1ccccc1)c1csc(CCNCc2nccs2)n1` [Example 3] as the compound, how does the IC50 read?
Its IC50 is 16.6 µM.

For `CC(=O)N(CCc1nc(C(=O)NCc2ccccc2)cs1)Cc1nccn1C` [Example 4], which IC50 is on record?
Its IC50 is 15.4 µM.

With `O=C(NCc1ccccc1)c1csc(CCNCc2n[nH]c3ccccc23)n1` [Example 5] as the compound, how does the IC50 read?
Its IC50 is 10.4 µM.

Which IC50 does the source give for `O=C(NCc1ccccc1)c1csc(CCNC(=O)c2nc3ccccc3[nH]2)n1` [Example 7] here?
The IC50 was 14.2 µM.

How did the IC50 turn out when `O=C(NCc1ccccc1)c1csc(CCNC(=O)c2ncc[nH]2)n1` [Example 8] was run?
The IC50 was 42.9 µM.

For `O=C(c1csc(CCNCc2nc3ccccc3[nH]2)n1)N1CCOCC1` [Example 18], which IC50 is on record?
The IC50 was 8.7 µM.

`O=C(NCc1ccccn1)c1cnn(CCNCCc2nc3ccccc3[nH]2)c1` [Example 109] was tested. Which IC50 did it give?
The IC50 was 0.076 µM.

How did the IC50 turn out when `O=C(Cc1nc2ccccc2[nH]1)NCCc1nc(C(=O)NCc2ncccc2F)cs1` [Example 113] was run?
Its IC50 is over 25 µM.

For `O=C(NCc1ncccc1F)c1csc(CCNCc2nc3ccc(F)cc3[nH]2)n1` [Example 114], which IC50 is on record?
Its IC50 is 0.118 µM.

How did the IC50 turn out when `O=C(NCc1ncccc1F)c1csc(CCNCc2nc3ccccc3o2)n1` [Example 115] was run?
Its IC50 is over 25 µM.

How did the IC50 turn out when `O=C(NCc1ncc(F)cc1F)c1csc(CCNCCc2nc3cc(F)ccc3[nH]2)n1` [Example 123] was run?
Its IC50 is 0.17 µM.

With `O=C(NCc1ncccn1)c1csc(CCNCCc2nc3ccccc3[nH]2)n1` [Example 129] as the compound, how does the IC50 read?
The IC50 was 0.353 µM.

How did the IC50 turn out when `O=C(NC1CCc2cccnc21)c1cnn(CCNCCc2nc3ccccc3[nH]2)c1` (stereo not drawn) [Example 131] was run?
Its IC50 is 0.09 µM.

Which IC50 does the source give for `Cc1nn(CCNCc2nc3ccccc3[nH]2)c(C)c1C(=O)NCc1ncccc1F` [Example 142] here?
The IC50 was 21.6 µM.

How did the IC50 turn out when `O=C(NCc1ncccc1F)c1cnn(CCNCc2nc3ccccc3[nH]2)c1` [Example 145] was run?
Its IC50 is 0.385 µM.

With `O=C(NCc1ncccc1F)c1csc(CCN(CCc2nc3ccccc3[nH]2)CC2CC2)n1` [Example 148] as the compound, how does the IC50 read?
The IC50 was 2.08 µM.

How did the IC50 turn out when `Cc1cnc(CNC(=O)c2csc(CCNCCc3nc4ccccc4[nH]3)n2)nc1` [Example 155] was run?
The IC50 was 0.347 µM.

`O=C(NCc1ncccc1F)c1cn(CCNCc2nc3ccccc3[nH]2)nc1C(F)(F)F` [Example 156] was tested. Which IC50 did it give?
The IC50 was 2.46 µM.

Which IC50 does the source give for `CCCCN(CCc1nc2ccccc2[nH]1)CCc1nc(C(=O)NCc2ncccc2F)cs1` [Example 157] here?
Its IC50 is 0.717 µM.

With `O=C(NCc1ccccn1)c1nc(CCNCc2nc3ccccc3[nH]2)sc1Cl` [Example 160] as the compound, how does the IC50 read?
Its IC50 is 0.256 µM.

Which IC50 does the source give for `O=C(NCc1ncccc1F)c1cn(CCNCCc2nc3ccccc3[nH]2)nc1C(F)(F)F` [Example 162] here?
Its IC50 is 0.297 µM.

Which IC50 does the source give for `NCCCN(CCc1nc2ccccc2[nH]1)CCc1nc(C(=O)NCc2ncccc2F)cs1` [Example 163] here?
The IC50 was 0.828 µM.

How did the IC50 turn out when `Cc1sc(CCNCc2nc3ccccc3[nH]2)nc1C(=O)NCc1ncccc1F` [Example 164] was run?
Its IC50 is 0.343 µM.

`Cc1sc(CCNCCc2nc3ccccc3[nH]2)nc1C(=O)NCc1ncccc1F` [Example 165] was tested. Which IC50 did it give?
The IC50 was 0.1 µM.

Which IC50 does the source give for `O=C(NCc1ncccc1Cl)c1coc(CCNCCc2nc3ccccc3[nH]2)n1` [Example 173] here?
The IC50 was 0.006 µM.

How did the IC50 turn out when `Cc1ccc(CNC(=O)c2csc(CCNCCc3nc4ccccc4[nH]3)n2)nn1` [Example 174] was run?
The IC50 was 0.141 µM.

`O=C(NCc1ncccn1)c1nc(CCNCc2nc3ccccc3[nH]2)sc1Cl` [Example 175] was tested. Which IC50 did it give?
Its IC50 is 1.02 µM.

`O=C(NCc1ncccc1F)c1nc(CCNCc2nc3ccccc3[nH]2)sc1C(F)(F)F` [Example 176] was tested. Which IC50 did it give?
Its IC50 is 0.957 µM.

Which IC50 does the source give for `Cc1cnc(CNC(=O)c2nc(CCNCCc3nc4ccccc4[nH]3)sc2Cl)nc1` [Example 182] here?
Its IC50 is 0.989 µM.

How did the IC50 turn out when `O=C(NCc1cccnn1)c1nc(CCNCCc2nc3ccccc3[nH]2)sc1Cl` [Example 183] was run?
Its IC50 is 0.131 µM.

How did the IC50 turn out when `O=C(NCc1ccccn1)c1nc(CCNCCc2nc3ccccc3[nH]2)sc1Cl` [Example 184] was run?
The IC50 was 0.063 µM.

How did the IC50 turn out when `O=C(NCc1ncccc1F)c1nc(CCNCCc2nc3ccccc3[nH]2)sc1C(F)(F)F` [Example 186] was run?
The IC50 was 0.3 µM.

With `Cc1sc(CCNCCc2nc3ccccc3[nH]2)nc1C(=O)NCc1ncccn1` [Example 188] as the compound, how does the IC50 read?
Its IC50 is 1.16 µM.

For `O=C(NCc1ccccn1)c1nc(CCN2CCc3nc4ccccc4n3C2)sc1Cl` [Example 189], which IC50 is on record?
Its IC50 is 0.06 µM.

`O=C(NC1CCc2cccnc21)c1cnn(C2CN(CCc3nc4ccccc4[nH]3)C2)c1` (stereo not drawn) [Example 191] was tested. Which IC50 did it give?
The IC50 was 0.33 µM.

How did the IC50 turn out when `O=C(NCc1ncccc1Cl)c1csc(C2CN(CCc3nc4ccccc4[nH]3)C2)n1` [Example 195] was run?
Its IC50 is 0.21 µM.

With `O=C(NCc1ncccc1F)c1cnn(C2CCN(CCc3nc4ccccc4[nH]3)CC2)c1` [Example 198] as the compound, how does the IC50 read?
Its IC50 is 27.1 µM.

How did the IC50 turn out when `CC(C)(CNCCc1nc(C(=O)NCc2ncccc2F)cs1)c1nc2ccccc2[nH]1` [Example 199] was run?
Its IC50 is 0.78 µM.

How did the IC50 turn out when `O=C(NCc1ncccc1F)c1nc(CNCCc2nc3ccccc3[nH]2)cs1` [Example 205] was run?
The IC50 was 0.37 µM.

`O=C(NCc1ncccc1F)c1coc(CNCCc2nc3ccccc3[nH]2)n1` [Example 206] was tested. Which IC50 did it give?
Its IC50 is 0.18 µM.

Which IC50 does the source give for `O=C(NCc1ncccc1F)c1nc(C2CN(CCc3nc4ccccc4[nH]3)C2)sc1Cl` [Example 209] here?
The IC50 was 0.379 µM.

`O=C(NCc1ncccc1F)c1nc(C2(O)CN(CCc3nc4ccccc4[nH]3)C2)sc1Cl` [Example 211] was tested. Which IC50 did it give?
The IC50 was 0.747 µM.

How did the IC50 turn out when `Cn1nc(CNCCc2nc3ccccc3[nH]2)cc1C(=O)NCc1ncccc1F` [Example 220] was run?
Its IC50 is 0.29 µM.

`COc1cccc2[nH]c(CCNCCc3nc(C(=O)NCc4ncccc4F)co3)nc12` [Example 227] was tested. Which IC50 did it give?
The IC50 was 0.13 µM.

How did the IC50 turn out when `CC(C)(Cc1nc(C(=O)NCc2ncccc2F)cs1)NCc1nc2ccccc2[nH]1` [Example 231] was run?
The IC50 was 5.2 µM.

`O=C(NCc1ccccn1)c1coc(CCNCCc2nc3c(F)cccc3[nH]2)n1` [Example 236] was tested. Which IC50 did it give?
The IC50 was 0.15 µM.

How did the IC50 turn out when `O=C(NCc1cccnn1)c1coc(C2CN(CCc3nc4ccccc4[nH]3)C2)n1` [Example 244] was run?
The IC50 was 0.09 µM.

With `O=C(NCc1ncccc1F)c1coc(CCNCCc2nc3c(F)ccc(Cl)c3[nH]2)n1` [Example 247] as the compound, how does the IC50 read?
Its IC50 is 0.082 µM.

For `O=C(NCc1ncccc1F)c1coc(CCNCCc2nc3c(F)ccc(F)c3[nH]2)n1` [Example 251], which IC50 is on record?
The IC50 was 0.062 µM.

`O=C(NCc1ncccc1F)c1coc(CCNCc2nc3c(F)cccc3[nH]2)n1` [Example 253] was tested. Which IC50 did it give?
Its IC50 is 0.226 µM.

For `O=C(NCc1ncccc1F)c1coc(CCNCCc2nc3c(C(F)(F)F)cccc3[nH]2)n1` [Example 256], which IC50 is on record?
The IC50 was 0.081 µM.

For `O=C(NCc1ncccc1F)c1coc(CCNCCc2nc3c(F)c(F)ccc3[nH]2)n1` [Example 257], which IC50 is on record?
The IC50 was 0.035 µM.

For `O=C(NCc1ccccn1)c1coc(C2CN(CCc3nc4c(F)cccc4[nH]3)C2)n1` [Example 258], which IC50 is on record?
The IC50 was 0.152 µM.

How did the IC50 turn out when `O=C(NCc1ncccc1F)c1coc(C2CN(CCc3nc4c(C(F)(F)F)cccc4[nH]3)C2)n1` [Example 273] was run?
The IC50 was 0.228 µM.

`O=C(NCc1ncccc1F)c1csc(CCNCc2nc3c(F)cccc3[nH]2)n1` [Example 274] was tested. Which IC50 did it give?
Its IC50 is 0.145 µM.

With `NC(=O)c1csc(CCNCc2nc3ccccc3[nH]2)n1` [compound 23] as the compound, how does the IC50 read?
Its IC50 is 15.8 µM.

Which IC50 does the source give for `O=C(NCc1ncccc1F)[C@@H]1CCN(CCNCc2nc3ccccc3[nH]2)C1` [compound 202] here?
The IC50 was 5 µM.

Reference: patent US10738041B2, “Ferroportin inhibitors” (Vifor (International) AG, priority 2015, dated 2020)
